tested on: human mixed lymphocyte reaction (MLR); assay: human mixed lymphocyte reaction (MLR) assay, immunosuppressant activity; format: cell-based; settings: Homo sapiens, Lymphocyte, Table 2
Method: The immunosuppressant activity of the compounds of the present invention was determined using the human mixed lymphocyte reaction (MLR) assay described by Kino, T. et al. in Transplantation Proceedings, XIX(5):36-39,Suppl. 6 (1987).

Compound | IC50
CC[C@@H]1/C=C(\C)C[C@H](C)C[C@H](OC)[C@H]2O[C@@](O)(C(=O)C(=O)N3CCCC[C@H]3C(=O)O[C@H](/C(C)=C/[C@@H]3CC[C@H](SC)[C@H](OC)C3)[C@H](C)[C@@H](O)CC1=O)[C@H](C)C[C@@H]2OC [Example 90] | 0.75 nM
CCC1C=C(C)CC(C)CC(OC)C2OC(O)(C(=O)C(=O)N3CCCCC3C(=O)OC(C(C)=CC3CCC(SCCC(=O)OCc4ccccc4)C(OC)C3)C(C)C(O)CC1=O)C(C)CC2OC (centres unmarked) [Example 18] | 18.5 nM

Results, then the compound that gave them:

IC50 | Compound
6.2 nM | CC[C@@H]1/C=C(\C)C[C@H](C)C[C@H](OC)[C@H]2O[C@@](O)(C(=O)C(=O)N3CCCC[C@H]3C(=O)O[C@H](/C(C)=C/[C@@H]3CC[C@H]([S+]([O-])c4ccccc4)[C@H](OC)C3)[C@H](C)[C@@H](O)CC1=O)[C@H](C)C[C@@H]2OC (single isomer, unassigned) [Example 133A]
0.58 nM | CC[C@@H]1/C=C(\C)C[C@H](C)C[C@H](OC)[C@H]2O[C@@](O)(C(=O)C(=O)N3CCCC[C@H]3C(=O)O[C@H](/C(C)=C/[C@@H]3CC[C@H](SCSC)[C@H](OC)C3)[C@H](C)[C@@H](O)CC1=O)[C@H](C)C[C@@H]2OC [Example 130]
3.4 nM | CC[C@@H]1/C=C(\C)C[C@H](C)C[C@H](OC)[C@H]2O[C@@](O)(C(=O)C(=O)N3CCCC[C@H]3C(=O)O[C@H](/C(C)=C/[C@@H]3CC[C@H](Sc4ccccc4)[C@H](OC)C3)[C@H](C)[C@@H](O)CC1=O)[C@H](C)C[C@@H]2OC [Example 132]
12.5 nM | CC[C@@H]1/C=C(\C)C[C@H](C)C[C@H](OC)[C@H]2O[C@@](O)(C(=O)C(=O)N3CCCC[C@H]3C(=O)O[C@H](/C(C)=C/[C@@H]3CC[C@H]([S+](C)[O-])[C@H](OC)C3)[C@H](C)[C@@H](O)CC1=O)[C@H](C)C[C@@H]2OC (single isomer, unassigned) [Example 127]
15.5 nM | CC[C@@H]1/C=C(\C)C[C@H](C)C[C@H](OC)[C@H]2O[C@@](O)(C(=O)C(=O)N3CCCC[C@H]3C(=O)O[C@H](/C(C)=C/[C@@H]3CC[C@H]([S+](C)[O-])[C@H](OC)C3)[C@H](C)[C@@H](O)CC1=O)[C@H](C)C[C@@H]2OC (some centres unmarked) [Example 128]
5.2 nM | CC[C@@H]1/C=C(\C)C[C@H](C)C[C@H](OC)[C@H]2O[C@@](O)(C(=O)C(=O)N3CCCC[C@H]3C(=O)O[C@H](/C(C)=C/[C@@H]3CC[C@H](SCOC)[C@H](OC)C3)[C@H](C)[C@@H](O)CC1=O)[C@H](C)C[C@@H]2OC [Example 131]
1.15 nM | CC[C@@H]1/C=C(\C)C[C@H](C)C[C@H](OC)[C@H]2O[C@@](O)(C(=O)C(=O)N3CCCC[C@H]3C(=O)O[C@H](/C(C)=C/[C@@H]3CC[C@H](S(C)(=O)=O)[C@H](OC)C3)[C@H](C)[C@@H](O)CC1=O)[C@H](C)C[C@@H]2OC [Example 129]

same assay, conditions: Table 2

IC50 | Compound
6.5 nM | CC[C@@H]1/C=C(\C)C[C@H](C)C[C@H](OC)[C@H]2O[C@@](O)(C(=O)C(=O)N3CCCC[C@H]3C(=O)O[C@H](/C(C)=C/[C@@H]3CC[C@H]([S+]([O-])c4ccccc4)[C@H](OC)C3)[C@H](C)[C@@H](O)CC1=O)[C@H](C)C[C@@H]2OC (single isomer, unassigned) [Example 133B]

tested on: human mixed lymphocyte reaction (MLR); assay: human mixed lymphocyte reaction (MLR), serum free variation; format: cell-based; settings: Homo sapiens, Lymphocyte, serum-free medium AIM V, Table 3
Procedure, shortened: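 Serum-free variant of the human MLR: cultured in AIM V medium in place of RPMI 1640 with 10% heat-inactivated FBS. Responder and stimulator PBMCs, pooled from four donors, at final 5×10^5/mL and 2×10^6/mL respectively.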

Compound | IC50
CC[C@@H]1/C=C(\C)C[C@H](C)C[C@H](OC)[C@H]2O[C@@](O)(C(=O)C(=O)N3CCCC[C@H]3C(=O)O[C@H](/C(C)=C/[C@@H]3CC[C@H]([S+]([O-])CCC(=O)OCc4ccccc4)[C@H](OC)C3)[C@H](C)[C@@H](O)CC1=O)[C@H](C)C[C@@H]2OC (single isomer, unassigned) [Example 62] | 29.2 nM
CC[C@@H]1/C=C(\C)C[C@H](C)C[C@H](OC)[C@H]2O[C@@](O)(C(=O)C(=O)N3CCCC[C@H]3C(=O)O[C@H](/C(C)=C/[C@@H]3CC[C@H](S(=O)(=O)CCCO)[C@H](OC)C3)[C@H](C)[C@@H](O)CC1=O)[C@H](C)C[C@@H]2OC [Example 53] | 0.04 nM
CC[C@@H]1/C=C(\C)C[C@H](C)C[C@H](OC)[C@H]2O[C@@](O)(C(=O)C(=O)N3CCCC[C@H]3C(=O)O[C@H](/C(C)=C/[C@@H]3CC[C@H](SC(=O)N(CC)CC)[C@H](OC)C3)[C@H](C)[C@@H](O)CC1=O)[C@H](C)C[C@@H]2OC [Example 97] | 0.5 nM
CC[C@@H]1/C=C(\C)C[C@H](C)C[C@H](OC)[C@H]2O[C@@](O)(C(=O)C(=O)N3CCCC[C@H]3C(=O)O[C@H](/C(C)=C/[C@@H]3CC[C@H]([S+]([O-])CCO)[C@H](OC)C3)[C@H](C)[C@@H](O)CC1=O)[C@H](C)C[C@@H]2OC (some centres unmarked) [Example 50] | 0.24 nM
CC[C@@H]1/C=C(\C)C[C@H](C)C[C@H](OC)[C@H]2O[C@@](O)(C(=O)C(=O)N3CCCC[C@H]3C(=O)O[C@H](/C(C)=C/[C@@H]3CC[C@H]([S+]([O-])c4ccc(O)cc4)[C@H](OC)C3)[C@H](C)[C@@H](O)CC1=O)[C@H](C)C[C@@H]2OC (some centres unmarked) [Example 48] | 0.9 nM
CCC1C=C(C)CC(C)CC(OC)C2OC(O)(C(=O)C(=O)N3CCCCC3C(=O)OC(C(C)=CC3CCC(SCC(=O)OCCOC)C(OC)C3)C(C)C(O)CC1=O)C(C)CC2OC (centres unmarked) [Example 35] | 27.1 nM
CC[C@@H]1/C=C(\C)C[C@H](C)C[C@H](OC)[C@H]2O[C@@](O)(C(=O)C(=O)N3CCCC[C@H]3C(=O)O[C@H](/C(C)=C/[C@@H]3CC[C@H](SC(=O)C(C)C)[C@H](OC)C3)[C@H](C)[C@@H](O)CC1=O)[C@H](C)C[C@@H]2OC [Example 86] | 1.7 nM
CCC1C=C(C)CC(C)CC(OC)C2OC(O)(C(=O)C(=O)N3CCCCC3C(=O)OC(C(C)=CC3CCC(SCC(=O)O)C(OC)C3)C(C)C(O)CC1=O)C(C)CC2OC (centres unmarked) [Example 30] | 9.1 nM
CC[C@@H]1/C=C(\C)C[C@H](C)C[C@H](OC)[C@H]2O[C@@](O)(C(=O)C(=O)N3CCCC[C@H]3C(=O)O[C@H](/C(C)=C/[C@@H]3CC[C@H]([S+]([O-])CCC(=O)N(O)C(C)C)[C@H](OC)C3)[C@H](C)[C@@H](O)CC1=O)[C@H](C)C[C@@H]2OC (some centres unmarked) [Example 72] | 32.2 nM
CCC(CC)OC(=O)CC[S+]([O-])[C@H]1CC[C@@H](/C=C(\C)[C@H]2OC(=O)[C@@H]3CCCCN3C(=O)C(=O)[C@]3(O)O[C@H]([C@@H](OC)C[C@@H](C)C/C(C)=C/[C@@H](CC)C(=O)C[C@H](O)[C@H]2C)[C@@H](OC)C[C@H]3C)C[C@H]1OC (single isomer, unassigned) [Example 67] | 25.6 nM
CC[C@@H]1/C=C(\C)C[C@H](C)C[C@H](OC)[C@H]2O[C@@](O)(C(=O)C(=O)N3CCCC[C@H]3C(=O)O[C@H](/C(C)=C/[C@@H]3CC[C@H]([S+]([O-])CC(=O)OCc4ccccc4)[C@H](OC)C3)[C@H](C)[C@@H](O)CC1=O)[C@H](C)C[C@@H]2OC (some centres unmarked) [Example 55] | 8.1 nM
CCOC(=O)CNC(=O)S[C@H]1CC[C@@H](/C=C(\C)[C@H]2OC(=O)[C@@H]3CCCCN3C(=O)C(=O)[C@]3(O)O[C@H]([C@@H](OC)C[C@@H](C)C/C(C)=C/[C@@H](CC)C(=O)C[C@H](O)[C@H]2C)[C@@H](OC)C[C@H]3C)C[C@H]1OC [Example 95] | 10.9 nM
CCOC(=O)CCSC1CCC(C=C(C)C2OC(=O)C3CCCCN3C(=O)C(=O)C3(O)OC(C(OC)CC(C)CC(C)=CC(CC)C(=O)CC(O)C2C)C(OC)CC3C)CC1OC (centres unmarked) [Example 10] | 3.2 nM
CC[C@@H]1/C=C(\C)C[C@H](C)C[C@H](OC)[C@H]2O[C@@](O)(C(=O)C(=O)N3CCCC[C@H]3C(=O)O[C@H](/C(C)=C/[C@@H]3CC[C@H](S(=O)(=O)CC(=O)OC(C)(C)C)[C@H](OC)C3)[C@H](C)[C@@H](O)CC1=O)[C@H](C)C[C@@H]2OC [Example 58] | 2.1 nM
CCC1C=C(C)CC(C)CC(OC)C2OC(O)(C(=O)C(=O)N3CCCCC3C(=O)OC(C(C)=CC3CCC(SCCC(=O)Oc4ccccc4)C(OC)C3)C(C)C(O)CC1=O)C(C)CC2OC (centres unmarked) [Example 8] | 1.8 nM
CCNC(=O)S[C@H]1CC[C@@H](/C=C(\C)[C@H]2OC(=O)[C@@H]3CCCCN3C(=O)C(=O)[C@]3(O)O[C@H]([C@@H](OC)C[C@@H](C)C/C(C)=C/[C@@H](CC)C(=O)C[C@H](O)[C@H]2C)[C@@H](OC)C[C@H]3C)C[C@H]1OC [Example 91] | 0.09 nM
CC[C@@H]1/C=C(\C)C[C@H](C)C[C@H](OC)[C@H]2O[C@@](O)(C(=O)C(=O)N3CCCC[C@H]3C(=O)O[C@H](/C(C)=C/[C@@H]3CC[C@H](SC(=O)NC(C)C)[C@H](OC)C3)[C@H](C)[C@@H](O)CC1=O)[C@H](C)C[C@@H]2OC [Example 93] | 0.3 nM
CCC1C=C(C)CC(C)CC(OC)C2OC(O)(C(=O)C(=O)N3CCCCC3C(=O)OC(C(C)=CC3CCC(SCC(=O)OCc4ccccc4)C(OC)C3)C(C)C(O)CC1=O)C(C)CC2OC (centres unmarked) [Example 27] | 3.7 nM

More lines, now with the values ahead:

IC50 | Compound
8.7 nM | CC[C@@H]1/C=C(\C)C[C@H](C)C[C@H](OC)[C@H]2O[C@@](O)(C(=O)C(=O)N3CCCC[C@H]3C(=O)O[C@H](/C(C)=C/[C@@H]3CC[C@H](SC(=O)NCC(=O)OCc4ccc(OC)cc4)[C@H](OC)C3)[C@H](C)[C@@H](O)CC1=O)[C@H](C)C[C@@H]2OC [Example 99]
1.1 nM | CC[C@@H]1/C=C(\C)C[C@H](C)C[C@H](OC)[C@H]2O[C@@](O)(C(=O)C(=O)N3CCCC[C@H]3C(=O)O[C@H](/C(C)=C/[C@@H]3CC[C@H](SC(=O)NCC(=O)N4CCOCC4)[C@H](OC)C3)[C@H](C)[C@@H](O)CC1=O)[C@H](C)C[C@@H]2OC [Example 101]
0.15 nM | CC[C@@H]1/C=C(\C)C[C@H](C)C[C@H](OC)[C@H]2O[C@@](O)(C(=O)C(=O)N3CCCC[C@H]3C(=O)O[C@H](/C(C)=C/[C@@H]3CC[C@H](SC(=O)c4cccnc4)[C@H](OC)C3)[C@H](C)[C@@H](O)CC1=O)[C@H](C)C[C@@H]2OC [Example 113]
1.5 nM | CC[C@@H]1/C=C(\C)C[C@H](C)C[C@H](OC)[C@H]2O[C@@](O)(C(=O)C(=O)N3CCCC[C@H]3C(=O)O[C@H](/C(C)=C/[C@@H]3CC[C@H](SC(=O)[C@@H](NC(C)=O)[C@@H](C)O)[C@H](OC)C3)[C@H](C)[C@@H](O)CC1=O)[C@H](C)C[C@@H]2OC [Example 122]

Source: patent US5604234A, “Substituted thiol macrolactam immunomodulators” (Abbott Laboratories, priority 1995, dated 1997)
